According to patent publication US20240315283A1, “ISOFUCOSTEROL A KEY NUTRIENT FOR PHYTOSTEROL EATING ANIMALS SUCH AS POLLEN EATING AND ALGAE-EATING AND PLANKTON EATING ORGANISMS” (APIX BIOSCIENCES, priority 2021, published 2024):

What was measured:
[1] = tested on: adult worker honeybees (Apis mellifera) or adult worker bumblebees (Bombus terrestris); test: Two-choice preference assay, diet with or without isofucosterol; format: in vivo; details: choice of diet with or without isofucosterol, 5 days, FIG. 1
Protocol: One treatment diet contained the isofucosterol and the other contained no sterol. Newly emerged bees were removed from the brood frame and cohorts of 30 bees per replicate were housed in plastic rearing cages. In all experiments, 10 cohorts of ˜30 bees each were used for each treatment group. […] Consumption of each diet was measured every 24 h for 5 days. Preference index was calculated as (amount of treatment consumed−amount of control consumed)/(total amount of food consumed). In Example 1, cohorts of bees were given a choice of diet with or without isofucosterol.

Honeybees [2] = test: Brood production in APIDEA nuc colonies; format: in vivo, honeybee; details: pollen-free diet with isofucosterol vs isofucosterol-free diet, increasing concentration
Protocol: Honeybees: Fully functional insulated styrofoam APIDEA nucs comprised 5 mini frames populated with adult workers and 1 mated laying queen bee were populated with 300-400 ml of young adult workers (˜N<1,000 bees of mixed ages).
Each treatment was tested with 3-6 colonies; each colony was fed with a 60-100 g patty (solid diet) on the top feeder fitted with a mesh floor. Diet was fed on the first day and again on day 6; the quantity consumed was measured on day 6 and day 15. If no larvae or eggs/queen are observed by day 6 then the experiment is terminated. The number of capped brood cells was counted on day 15. The number of bee seams was estimated during each inspection. Sugar syrup (34%) and water was provided in feeders inside the tent to prevent carbohydrate starvation and to stimulate foraging activity.
In Example 3, bees were fed with a diet containing 10-18% protein, 6% fat, 1% vitamins/minerals and >75% carbohydrates.
As the concentration of isofucosterol increased, the amount of brood produced in each colony increased (N>3 colonies/treatment). The pupae, and the number of new adults was counted over the entire 10-week period.

Honeybees [3] = test: Long term Apidea experiment with bees fed a multiplicity of sterols; format: in vivo, honeybee; details: diet with isofucosterol and multiplicity of sterols; cycles of 21 days
Protocol: Honeybees: Fully functional insulated styrofoam Apidea™ nucs comprised 3-5 mini frames populated with adult workers and 1 mated laying queen bee were populated with 300-400 ml of young adult workers (˜N<1,000 bees of mixed ages).
Each treatment was tested with 3-6 colonies, each colony was fed ad libitum with the solid diet on the top feeder fitted with a mesh floor, and the quantity consumed was assessed at every feeding. The number of capped brood cells was assessed every 12 days. The number of bee seams was recorded during each inspection. If the colony reaches maximal size for the Apidea box, a super is added. Sugar syrup (34%) and water was provided in feeders inside the tent to prevent carbohydrate starvation and to stimulate foraging activity.
In Example 4A, bees were fed with a diet containing 15-30% protein, 4-12% fat, 1% vitamins/minerals and >40% carbohydrates (Diet 1). […]
FIG. 4—results of experiment 4A: Mean area of sealed brood (cm2) assessed every 12 days over a 15-week period. […]

adult worker honeybees = test: Survival of cohorts of bees on diets containing isofucosterol; format: in vivo, honeybee; details: pollen-free diet with isofucosterol vs isofucosterol-free diet
Protocol: Newly emerged adult worker honeybees fed with a diet treatment and ad libitum access to water. The treatment diet contained the isofucosterol. Newly emerged bees were removed from the brood frame and cohorts of 30 bees per replicate were housed in plastic rearing cages. In all experiments, 10 cohorts of ˜30 bees each were used for each treatment group. In all diet's carbohydrate was maintained at 60% using sucrose and fat was maintained at 8%. Consumption of each diet was measured every day over the course of the experiment. The number of bees alive in the box was counted each day for 14 days.
Example 2 represents the survival of cohorts of bees confined to feed on diets containing specific concentrations of isofucosterol (0%, 0.5% and 1% weight of diet), as shown in FIG. 2.

Black soldier flies = test: Black soldier fly feeding experiments; format: in vivo, Hermetia illucens
Protocol: Adult survival and number of egg masses laid from a population fed with a pollen substitute diet (as specified in US2019/0090507 to Apix Biosciences) was measured daily using the methods of rearing described in Thinn and Kainoh 2022. JARQ 56 (2), 211-217 (2022). […] Black soldier fly (BSF) larvae were fed with a diet containing 22% protein, 4% fat as described in Hogsette 1992. J. Econ. Entomol. 85(6): 2291-2294 until ecclosion. Sterols were sourced as pure compounds added directly to diet to a total quantity of 0.1%. […] J. Entomol. 118: 297-306, 2021. […] Sterols were added to diet. Measurement of sterols in tissues was performed after saponification of BSF tissues using GC-MS as described in Boukid et al. 2022. Insects 12, 672.

**Q.** Which “isofucosterol concentration in the diet that bees preferred to consume” value [1] does the source give for `C/C=C(/CC[C@@H](C)[C@H]1CC[C@H]2[C@@H]3CC=C4C[C@@H](O)CC[C@]4(C)[C@H]3CC[C@]12C)C(C)C` [isofucosterol, Isofucosterol] here?
**A.** at least 0.05%

**Q.** And the bee brood production (Honeybees [2])?
**A.** increased

**Q.** What about the bee brood production (Honeybees [2]; listed as Isofucosterol) of the same compound?
**A.** increases

**Q.** What about the “brood production / brood development supported” value (Honeybees [3]) of the same compound?
**A.** more than 4 cycles

**Q.** And the “survival of worker bees” value (adult worker honeybees)?
**A.** increases

**Q.** What about the “egg laying and egg hatching performance and adult longevity” value (Black soldier flies; cultivated Black Soldier Fly or beetle adults fed diet containing isofucosterol) of the same compound?
**A.** improves

**Q.** And the “performance of adult and larval BSF” value (Black soldier flies; isofucosterol delivered through a pollen-free diet)?
**A.** increases the performance
